Structures are written as SMILES.

Here are results for 13 compounds from US20240190880A1 (THE REGENTS OF THE UNIVERSITY OF MICHIGAN, priority 2021, published 2024).

In the first experiment the target is T1, ER (Homo sapiens, UniProt P03372).
T1 construct: host or cells: T47D and MCF7 human breast cancer cells
T1 sequence (P03372 1-595): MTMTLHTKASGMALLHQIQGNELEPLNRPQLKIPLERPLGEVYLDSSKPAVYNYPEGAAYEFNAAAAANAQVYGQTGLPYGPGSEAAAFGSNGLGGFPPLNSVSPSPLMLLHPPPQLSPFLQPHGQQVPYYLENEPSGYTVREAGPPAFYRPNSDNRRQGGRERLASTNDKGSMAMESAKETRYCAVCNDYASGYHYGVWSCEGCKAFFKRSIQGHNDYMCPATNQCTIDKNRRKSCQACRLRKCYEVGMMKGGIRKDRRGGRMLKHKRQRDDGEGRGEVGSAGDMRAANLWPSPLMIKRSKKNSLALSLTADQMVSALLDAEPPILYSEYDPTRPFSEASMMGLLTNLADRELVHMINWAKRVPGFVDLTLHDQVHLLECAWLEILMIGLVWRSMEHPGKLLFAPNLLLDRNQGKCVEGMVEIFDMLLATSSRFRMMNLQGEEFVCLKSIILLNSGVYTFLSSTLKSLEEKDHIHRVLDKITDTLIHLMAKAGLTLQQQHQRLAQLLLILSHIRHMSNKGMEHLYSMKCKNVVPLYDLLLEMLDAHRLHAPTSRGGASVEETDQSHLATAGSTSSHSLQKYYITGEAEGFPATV
The experiment is described as follows: ER degradation activity, in-cell western blot analysis in T47D cells. The format is cell-based. The note with it: 16 hours, Table A does not say which cell line (T47D or MCF7), read-out: Potency (DC50). The procedure, abridged:
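T47D cells grown in DMEM with 10% FBS were treated with compounds for 16 hours at 0.5% DMSO final. ER was detected by in-cell western using 680/800 near-infrared secondary antibodies. Residual ER is given as percent of untreated and DMSO-treated wells set to 100%.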
The term DC50 denotes the concentration giving 50% degradation. As for `O=C1CCC(N2C(=O)c3cc4c(cc3C2=O)CN(CC(=O)N2CCC3(C2)CN(c2ccc([C@@H]5c6ccc(O)cc6CC[C@@H]5c5ccccc5)cc2)C3)C4)C(=O)N1` (mixture of isomers) [E 17, rac-2-(2,6-dioxopiperidin-3-yl)-6-(2-(2-(4-((1R,2S)-6-hydroxy-2-phenyl-1,2,3,4-tetrahydronaphthalen-1-yl)phenyl)-2,6-diazaspiro[3.4]octan-6-yl)-2-oxoethyl)-6,7-dihydropyrrolo[3,4-f]isoindole-1,3(2H,5H)-dione], the DC50 lay within 10 to 100 nM.
With `C[C@@H]1Cc2c([nH]c3ccccc23)[C@@H](c2c(F)cc(N3CCC(N4CCC(CN5Cc6cc7c(cc6C5)C(=O)N(C5CCC(=O)NC5=O)C7=O)CC4)CC3)cc2F)N1CC(F)F` (stereo partly drawn) [E 118, 6-((1′-(4-((1R,3R)-2-(2,2-difluoroethyl)-3-methyl-2,3,4,9-tetrahydro-1H-pyrido[3,4-b]indol-1-yl)-3,5-difluorophenyl)-[1,4′-bipiperidin]-4-yl)methyl)-2-(2,6-dioxopiperidin-3-yl)-6,7-dihydropyrrolo[3,4-f]isoindole-1,3(2H,5H)-dione], the 50% degradation concentration (DC50) was more than 100 nM.
Regarding `C[C@@H]1Cc2c([nH]c3ccccc23)[C@@H](c2c(F)cc(N3CCC4(CCN(CC(=O)N5Cc6cc7c(cc6C5)C(=O)N(C5CCC(=O)NC5=O)C7=O)CC4)C3)cc2F)N1CC(F)F` (stereo partly drawn) [E 107, 6-(2-(2-(4-((1R,3R)-2-(2,2-difluoroethyl)-3-methyl-2,3,4,9-tetrahydro-1H-pyrido[3,4-b]indol-1-yl)-3,5-difluorophenyl)-2,8-diazaspiro[4.5]decan-8-yl)acetyl)-2-(2,6-dioxopiperidin-3-yl)-6,7-dihydropyrrolo[3,4-f]isoindole-1,3(2H,5H)-dione], the half-maximal degradation concentration (DC50) was less than 10 nM.
Consider `O=C1CCC(N2C(=O)c3cc4c(cc3C2=O)CN(C[C@H]2CC[C@H](N3CC(Nc5ccc([C@@H]6c7ccc(O)cc7CC[C@@H]6c6ccccc6)cc5)C3)CC2)C4)C(=O)N1` (stereo partly drawn) [E 374, 2-(2,6-dioxopiperidin-3-yl)-6-(((1R,4r)-4-(3-((4-((1R,2S)-6-hydroxy-2-phenyl-1,2,3,4-tetrahydronaphthalen-1-yl)phenyl)amino)azetidin-1-yl)cyclohexyl)methyl)-6,7-dihydropyrrolo[3,4-f]isoindole-1,3(2H,5H)-dione], for which the DC50 was more than 100 nM.
On the same count and under the same terms, the same measure for `C[C@@H]1Cc2c([nH]c3ccccc23)[C@@H](c2ccc(C3=CCC(C(=O)N4CCC(N5Cc6cc7c(cc6C5)C(=O)N(C5CCC(=O)NC5=O)C7=O)CC4)CC3)nc2)N1CC(F)F` (stereo partly drawn) [E 314, 6-(1-(4-(5-((1R,3R)-2-(2,2-difluoroethyl)-3-methyl-2,3,4,9-tetrahydro-1H-pyrido[3,4-b]indol-1-yl)pyridin-2-yl)cyclohex-3-ene-1-carbonyl)piperidin-4-yl)-2-(2,6-dioxopiperidin-3-yl)-6,7-dihydropyrrolo[3,4-f]isoindole-1,3(2H,5H)-dione]: more than 100 nM; for `O=C1CCC(N2C(=O)c3cc4c(cc3C2=O)CN(CC(=O)N2CCC3(CC2)CCN(c2ccc([C@@H]5c6ccc(O)cc6CC[C@@H]5c5ccccc5)cc2)CC3)CC4)C(=O)N1` (mixture of isomers) [E 162, rac-2-(2,6-dioxopiperidin-3-yl)-6-(2-(9-(4-((1R,2S)-6-hydroxy-2-phenyl-1,2,3,4-tetrahydronaphthalen-1-yl)phenyl)-3,9-diazaspiro[5.5]undecan-3-yl)-2-oxoethyl)-5,6,7,8-tetrahydro-1H-pyrrolo[3,4-g]isoquinoline-1,3(2H)-dione]: 10 to 100 nM.
For the compound `O=C1CCC(N2C(=O)c3cc4c(cc3C2=O)CN(CC(=O)N2CCC(N3CC(Oc5ccc([C@@H]6c7ccc(O)cc7CC[C@@H]6c6ccccc6)cc5)C3)CC2)C4)C(=O)N1` (stereo partly drawn) [E 377, 2-(2,6-dioxopiperidin-3-yl)-6-(2-(4-(3-(4-((1R,2S)-6-hydroxy-2-phenyl-1,2,3,4-tetrahydronaphthalen-1-yl)phenoxy)azetidin-1-yl)piperidin-1-yl)-2-oxoethyl)-6,7-dihydropyrrolo[3,4-f]isoindole-1,3(2H,5H)-dione], the DC50 was in the range of 10 to 100 nM.
As for `C[C@@H]1Cc2c([nH]c3ccccc23)[C@@H](c2cnc(N3CCC(C(=O)N4CCC(N5Cc6cc7c(cc6C5)C(=O)N(C5CCC(=O)NC5=O)C7=O)CC4)CC3)nc2)N1CC(F)F` (stereo partly drawn) [E 260, 6-(1-(1-(5-((1R,3R)-2-(2,2-difluoroethyl)-3-methyl-2,3,4,9-tetrahydro-1H-pyrido[3,4-b]indol-1-yl)pyrimidin-2-yl)piperidine-4-carbonyl)piperidin-4-yl)-2-(2,6-dioxopiperidin-3-yl)-6,7-dihydropyrrolo[3,4-f]isoindole-1,3(2H,5H)-dione], the DC50 is less than 10 nM.
On the same count and under the same terms, for `O=C1CCC(N2C(=O)c3cc4c(cc3C2=O)CN(C2CCN(CC3CN(c5ccc([C@H]6c7ccc(O)cc7CC[C@H]6c6ccc(F)cc6)cc5)C3)CC2)C4)C(=O)N1` (stereo partly drawn) [E 276, 2-(2,6-dioxopiperidin-3-yl)-6-(1-((1-(4-((1S,2R)-2-(4-fluorophenyl)-6-hydroxy-1,2,3,4-tetrahydronaphthalen-1-yl)phenyl)azetidin-3-yl)methyl)piperidin-4-yl)-6,7-dihydropyrrolo[3,4-f]isoindole-1,3(2H,5H)-dione] the value was more than 100 nM; for `C[C@@H]1Cc2c([nH]c3ccccc23)[C@@H](c2c(F)cc(C3CCC(C(=O)N4CC(CN5Cc6cc7c(cc6C5)C(=O)N(C5CCC(=O)NC5=O)C7=O)C4)CC3)cc2F)N1CC(F)F` (stereo partly drawn) [E250, 6-((1-(4-(4-((1R,3R)-2-(2,2-difluoroethyl)-3-methyl-2,3,4,9-tetrahydro-1H-pyrido[3,4-b]indol-1-yl)-3,5-difluorophenyl)cyclohexane-1-carbonyl)azetidin-3-yl)methyl)-2-(2,6-dioxopiperidin-3-yl)-6,7-dihydropyrrolo[3,4-f]isoindole-1,3(2H,5H)-dione], less than 10 nM; for `O=C1CCC(N2C(=O)c3cc4c(cc3C2=O)CN(CC(=O)N2CCC3(CC2)CCN(c2ccc([C@H]5c6ccc(O)cc6CC[C@H]5c5ccc(F)cc5)cc2)CC3)C4)C(=O)N1` (stereo partly drawn) [E 213, 2-(2,6-dioxopiperidin-3-yl)-6-(2-(9-(4-((1S,2R)-2-(4-fluorophenyl)-6-hydroxy-1,2,3,4-tetrahydronaphthalen-1-yl)phenyl)-3,9-diazaspiro[5.5]undecan-3-yl)-2-oxoethyl)-6,7-dihydropyrrolo[3,4-f]isoindole-1,3(2H,5H)-dione], 10 to 100 nM.

The experiment is the same for the next values; noted with them: compounds 16 hours, Table A does not say whether T47D or MCF7, read-out: Potency (DC50).
As to `C[C@@H]1Cc2c([nH]c3ccccc23)[C@@H](c2c(F)cc(C3CCC4(CC3)CCN(C(=O)CN3Cc5cc6c(cc5C3)C(=O)N(C3CCC(=O)NC3=O)C6=O)CC4)cc2F)N1CC(F)F` (stereo partly drawn) [E 480, 6-(2-(9-(4-((1R,3R)-2-(2,2-difluoroethyl)-3-methyl-2,3,4,9-tetrahydro-1H-pyrido[3,4-b]indol-1-yl)-3,5-difluorophenyl)-3-azaspiro[5.5]undecan-3-yl)-2-oxoethyl)-2-(2,6-dioxopiperidin-3-yl)-6,7-dihydropyrrolo[3,4-f]isoindole-1,3(2H,5H)-dione], the DC50 lay in the range of 10 to 100 nM.
Still for that read-out and setting: for `O=C1CCC(N2Cc3cc4c(cc3C2=O)CN(C[C@H]2CC[C@H](C(=O)N3CC(Oc5ccc([C@@H]6c7ccc(O)cc7CC[C@@H]6c6ccccc6)cc5)C3)CC2)C4)C(=O)N1` (mixture of isomers) [E 499, 3-(6-(((IRS,4SR)-4-(3-(4-((1R,2S)-6-hydroxy-2-phenyl-1,2,3,4-tetrahydronaphthalen-1-yl)phenoxy)azetidine-1-carbonyl)cyclohexyl)methyl)-1-oxo-3,5,6,7-tetrahydropyrrolo[3,4-f]isoindol-2(1H)-yl)piperidine-2,6-dione] the value was 10 to 100 nM.
